In PubChem BioAssay AID328 (DTP/NCI, 2004):
Where “and” joins values, the source holds several entries; their conditions need not be identical. Equal entries are not always repeated. Inconclusive results and toxic doses are left out.

Test system: BDF1 mice, P388 leukemia ip, median survival T/C
Test: NCI In Vivo Anticancer Drug Screen. Data for tumor model P388 Leukemia (intraperitoneal) in B6D2F1 (BDF1) mice
Settings: endpoint: median survival time, higher = longer survival
Method in brief: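 Reported as T/C, where T is the survival measurement in dosed animals and C the same measurement in vehicle controls.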

[1] = dose: 0.39 mg/kg/injection, schedule: Q01DX009 (ip), vehicle: water

Structure (SMILES): O/C(=C/C(=S)S)c1cccs1
- T/C (dose: 0.1 mg/kg/injection, schedule: Q04DX003 (ip), vehicle: water): 88 % of control
- T/C (dose: 0.2 mg/kg/injection, schedule: Q04DX003 (ip), vehicle: water): 97 % of control
- T/C [1]: 101 % of control
- T/C (dose: 0.4 mg/kg/injection, schedule: Q04DX003 (ip), vehicle: water): 95 % of control
- T/C (dose: 0.78 mg/kg/injection, schedule: Q01DX009 (ip), vehicle: water): 97 % of control
- T/C (dose: 0.8 mg/kg/injection, schedule: Q04DX003 (ip), vehicle: water): 89 % of control
- T/C (dose: 1.56 mg/kg/injection, schedule: Q01DX009 (ip), vehicle: water): 92 % of control
- T/C (dose: 3.12 mg/kg/injection, schedule: Q01DX009 (ip), vehicle: water): 100 % of control
- T/C (dose: 6.25 mg/kg/injection, schedule: Q01DX009 (ip), vehicle: water): 102 % of control
- T/C (dose: 6.25 mg/kg/injection, schedule: Q04DX003 (ip), vehicle: water): 111 % of control
- T/C (dose: 12.5 mg/kg/injection, schedule: Q01DX009 (ip), vehicle: water): 94 % of control

Structure (SMILES): O=CNC(Cc1ccc(N(CCCl)CCCl)cc1)C(=O)O (centres undefined)
- T/C (dose: 1.1 mg/kg/injection, schedule: Q01DX009 (ip), vehicle: Klucel (hydroxypropylcellulose) (HPC)): 107 % of control
- T/C (dose: 1.46 mg/kg/injection, schedule: Q04DX003 (ip), vehicle: saline): 104 % of control
- T/C (dose: 1.56 mg/kg/injection, schedule: Q01DX009 (ip), vehicle: saline): 118 % of control
- T/C (dose: 1.7 mg/kg/injection, schedule: Q01DX009 (ip), vehicle: Klucel (hydroxypropylcellulose) (HPC)): 107 % of control
- T/C (dose: 2.2 mg/kg/injection, schedule: Q04DX003 (ip), vehicle: saline): 100 % of control
- T/C (dose: 3.13 mg/kg/injection, schedule: Q01DX009 (ip), vehicle: saline): 104 % of control
- T/C (dose: 3.3 mg/kg/injection, schedule: Q04DX003 (ip), vehicle: saline): 118 % of control
- T/C (dose: 5.0 mg/kg/injection, schedule: Q04DX003 (ip), vehicle: saline): 122 % of control
- T/C (dose: 6.25 mg/kg/injection, schedule: Q01DX009 (ip), vehicle: Klucel (hydroxypropylcellulose) (HPC)): 175 % of control
- T/C (dose: 6.25 mg/kg/injection, schedule: Q01DX009 (ip), vehicle: saline): 181 % of control
- T/C (dose: 8.3 mg/kg/injection, schedule: Q04DX003 (ip), vehicle: Klucel (hydroxypropylcellulose) (HPC)): 109 % of control
- T/C (dose: 11.0 mg/kg/injection, schedule: Q04DX003 (ip), vehicle: saline): 160 % of control
- T/C (dose: 12.0 mg/kg/injection, schedule: Q04DX003 (ip), vehicle: Klucel (hydroxypropylcellulose) (HPC)): 118 % of control
- T/C (dose: 12.5 mg/kg/injection, schedule: Q01DX009 (ip), vehicle: Klucel (hydroxypropylcellulose) (HPC)): 185 % of control
- T/C (dose: 16.0 mg/kg/injection, schedule: Q01DX009 (ip), vehicle: Klucel (hydroxypropylcellulose) (HPC)): 160 % of control and 200 % of control
- T/C (dose: 16.5 mg/kg/injection, schedule: Q04DX003 (ip), vehicle: saline): 163 % of control and 169 % of control
- T/C (dose: 23.3 mg/kg/injection, schedule: Q01DX009 (ip), vehicle: Klucel (hydroxypropylcellulose) (HPC)): 170 % of control
- T/C (dose: 25.0 mg/kg/injection, schedule: Q01DX009 (ip), vehicle: Klucel (hydroxypropylcellulose) (HPC)): 230 % of control and 220 % of control
- T/C (dose: 25.0 mg/kg/injection, schedule: Q04DX003 (ip), vehicle: saline): 172 % of control and 200 % of control
- T/C (dose: 29.0 mg/kg/injection, schedule: Q04DX003 (ip), vehicle: Klucel (hydroxypropylcellulose) (HPC)): 115 % of control
- T/C (dose: 35.0 mg/kg/injection, schedule: Q01DX009 (ip), vehicle: Klucel (hydroxypropylcellulose) (HPC)): 245 % of control and 195 % of control
- T/C (dose: 37.5 mg/kg/injection, schedule: Q04DX003 (ip), vehicle: saline): 234 % of control and 186 % of control
- T/C (dose: 40.0 mg/kg/injection, schedule: Q04DX003 (ip), vehicle: Klucel (hydroxypropylcellulose) (HPC)): 204 % of control
- T/C (dose: 44.0 mg/kg/injection, schedule: Q04DX003 (ip), vehicle: Klucel (hydroxypropylcellulose) (HPC)): 240 % of control
- T/C (dose: 50.0 mg/kg/injection, schedule: Q01DX009 (ip), vehicle: Klucel (hydroxypropylcellulose) (HPC)): 272 % of control
- T/C (dose: 60.0 mg/kg/injection, schedule: Q04DX003 (ip), vehicle: Klucel (hydroxypropylcellulose) (HPC)): 272 % of control
- T/C (dose: 66.0 mg/kg/injection, schedule: Q04DX003 (ip), vehicle: Klucel (hydroxypropylcellulose) (HPC)): 280 % of control
- T/C (dose: 100.0 mg/kg/injection, schedule: Q04DX003 (ip), vehicle: Klucel (hydroxypropylcellulose) (HPC)): 175 % of control
- T/C (dose: 100.0 mg/kg/injection, schedule: Q04DX003 (ip), vehicle: saline with Tween-80): 95 % of control
- T/C (dose: 132.0 mg/kg/injection, schedule: Q04DX003 (ip), vehicle: Klucel (hydroxypropylcellulose) (HPC)): 250 % of control
- T/C (dose: 200.0 mg/kg/injection, schedule: Q04DX003 (ip), vehicle: Klucel (hydroxypropylcellulose) (HPC)): 185 % of control

Structure (SMILES): CC[C@@]1(O)C[C@H](OC2CC(N(C)C)C(OC3CC(O)C(OC4CCC(=O)C(C)O4)C(C)O3)C(C)O2)c2c(cc3c(c2O)C(=O)c2c(O)ccc(O)c2C3=O)[C@H]1C(=O)OC (some centres undefined)
- T/C [1]: 111 % of control
- T/C (dose: 0.5 mg/kg/injection, schedule: Q01DX003 (ip), vehicle: saline): 163 % of control
- T/C (dose: 0.5 mg/kg/injection, schedule: Q01DX009 (ip), vehicle: water): 117 % of control
- T/C (dose: 0.65 mg/kg/injection, schedule: Q01DX009 (ip), vehicle: water): 152 % of control
- T/C (dose: 0.75 mg/kg/injection, schedule: Q01DX010 (ip), vehicle: saline): 170 % of control
- T/C (dose: 1.0 mg/kg/injection, schedule: Q01DX003 (ip), vehicle: saline): 190 % of control
- T/C (dose: 1.0 mg/kg/injection, schedule: Q01DX009 (ip), vehicle: saline): 154 % of control
- T/C (dose: 1.0 mg/kg/injection, schedule: Q01DX009 (ip), vehicle: water): 86 % of control
- T/C (dose: 1.0 mg/kg/injection, schedule: Q04DX003 (ip), vehicle: water): 102 % of control
- T/C (dose: 1.08 mg/kg/injection, schedule: Q01DX009 (ip), vehicle: water): 177 % of control and 180 % of control
- T/C (dose: 1.5 mg/kg/injection, schedule: Q01DX010 (ip), vehicle: saline): 175 % of control
- T/C (dose: 1.73 mg/kg/injection, schedule: Q04DX003 (ip), vehicle: other): 155 % of control
- T/C (dose: 1.8 mg/kg/injection, schedule: Q01DX009 (ip), vehicle: water): 225 % of control and 200 % of control
- T/C (dose: 2.0 mg/kg/injection, schedule: Q01DX003 (ip), vehicle: saline): 109 % of control
- T/C (dose: 2.0 mg/kg/injection, schedule: Q01DX009 (ip), vehicle: saline): 191 % of control
- T/C (dose: 2.0 mg/kg/injection, schedule: Q01DX009 (ip), vehicle: water): 90 % of control
- T/C (dose: 2.0 mg/kg/injection, schedule: Q04DX003 (ip), vehicle: water): 119 % of control
- T/C (dose: 2.88 mg/kg/injection, schedule: Q04DX003 (ip), vehicle: other): 186 % of control
- T/C (dose: 3.0 mg/kg/injection, schedule: Q01DX010 (ip), vehicle: saline): 90 % of control
- T/C (dose: 4.8 mg/kg/injection, schedule: Q04DX003 (ip), vehicle: other): 109 % of control
- T/C (dose: 5.0 mg/kg/injection, schedule: Q04DX003 (ip), vehicle: water): 203 % of control
- T/C (dose: 8.44 mg/kg/injection, schedule: Q01DX001 (ip), vehicle: water): 158 % of control
- T/C (dose: 10.0 mg/kg/injection, schedule: Q04DX003 (ip), vehicle: water): 88 % of control
- T/C (dose: 11.25 mg/kg/injection, schedule: Q01DX001 (ip), vehicle: water): 152 % of control
- T/C (dose: 13.33 mg/kg/injection, schedule: Q04DX003 (ip), vehicle: water): 117 % of control
- T/C (dose: 15.0 mg/kg/injection, schedule: Q01DX001 (ip), vehicle: water): 100 % of control
- T/C (dose: 20.0 mg/kg/injection, schedule: Q01DX001 (ip), vehicle: water): 50 % of control

Structure (SMILES): OCC1OC(n2cnc3c(SCc4ccccc4)nc(NO)nc32)C(O)C1O (centres undefined)
- T/C (dose: 200.0 mg/kg/injection, schedule: Q01DX009 (ip), vehicle: acetone): 100 % of control

Structure (SMILES): CN(C)c1ccc(/C=C/c2ccc3ccccc3[n+]2C)cc1
- T/C (dose: 12.5 mg/kg/injection, schedule: Q01DX009 (ip), vehicle: saline): 88 % of control

Structure (SMILES): CC(=O)OC1CCC2C3CCC4=C(Cl)C(=O)CCC4C3CCC12C (centres undefined)
- T/C (dose: 100.0 mg/kg/injection, schedule: Q04DX003 (sc), vehicle: steriod suspending solution): 90 % of control
- T/C (dose: 200.0 mg/kg/injection, schedule: Q04DX003 (sc), vehicle: steriod suspending solution): 100 % of control
- T/C (dose: 400.0 mg/kg/injection, schedule: Q04DX003 (sc), vehicle: steriod suspending solution): 100 % of control

Structure (SMILES): CCCC[S+](CCCC)CC(=O)c1ccc(-c2ccccc2)cc1
- T/C (dose: 1.56 mg/kg/injection, schedule: Q01DX009 (ip), vehicle: saline with Tween-80): 105 % of control
- T/C (dose: 3.13 mg/kg/injection, schedule: Q01DX009 (ip), vehicle: saline with Tween-80): 100 % of control
- T/C (dose: 6.25 mg/kg/injection, schedule: Q01DX009 (ip), vehicle: saline with Tween-80): 106 % of control
- T/C (dose: 12.5 mg/kg/injection, schedule: Q01DX009 (ip), vehicle: saline with Tween-80): 107 % of control
- T/C (dose: 25.0 mg/kg/injection, schedule: Q01DX009 (ip), vehicle: saline with Tween-80): 113 % of control
